Data as given in ChEMBL document CHEMBL5291721, “A preclinical secondary pharmacology resource illuminates target-adverse drug reaction associations of marketed drugs” (Nat Commun, 2023).

Key:
[1] = target: 5-hydroxytryptamine receptor 2A (Homo sapiens, UniProt P28223); type: functional, cell-based
[2] = target: T1, Alpha-2B adrenergic receptor (Homo sapiens, UniProt P18089)
T1 sequence (P18089 whole entry): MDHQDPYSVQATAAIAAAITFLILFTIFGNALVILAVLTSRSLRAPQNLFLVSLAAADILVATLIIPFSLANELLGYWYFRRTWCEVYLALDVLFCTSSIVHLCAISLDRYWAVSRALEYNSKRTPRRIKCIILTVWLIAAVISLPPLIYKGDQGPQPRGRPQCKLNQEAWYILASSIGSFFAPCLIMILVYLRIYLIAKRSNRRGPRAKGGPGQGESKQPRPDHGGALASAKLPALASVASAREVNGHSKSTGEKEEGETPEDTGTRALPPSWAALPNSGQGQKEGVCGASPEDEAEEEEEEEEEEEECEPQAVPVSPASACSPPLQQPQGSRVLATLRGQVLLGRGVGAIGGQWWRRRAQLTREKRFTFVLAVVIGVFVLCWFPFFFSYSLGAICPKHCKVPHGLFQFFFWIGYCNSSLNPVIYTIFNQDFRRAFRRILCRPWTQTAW

[3] = target: T2, Peroxisome proliferator-activated receptor gamma (Homo sapiens, UniProt P37231); type: functional
T2 sequence (P37231 whole entry): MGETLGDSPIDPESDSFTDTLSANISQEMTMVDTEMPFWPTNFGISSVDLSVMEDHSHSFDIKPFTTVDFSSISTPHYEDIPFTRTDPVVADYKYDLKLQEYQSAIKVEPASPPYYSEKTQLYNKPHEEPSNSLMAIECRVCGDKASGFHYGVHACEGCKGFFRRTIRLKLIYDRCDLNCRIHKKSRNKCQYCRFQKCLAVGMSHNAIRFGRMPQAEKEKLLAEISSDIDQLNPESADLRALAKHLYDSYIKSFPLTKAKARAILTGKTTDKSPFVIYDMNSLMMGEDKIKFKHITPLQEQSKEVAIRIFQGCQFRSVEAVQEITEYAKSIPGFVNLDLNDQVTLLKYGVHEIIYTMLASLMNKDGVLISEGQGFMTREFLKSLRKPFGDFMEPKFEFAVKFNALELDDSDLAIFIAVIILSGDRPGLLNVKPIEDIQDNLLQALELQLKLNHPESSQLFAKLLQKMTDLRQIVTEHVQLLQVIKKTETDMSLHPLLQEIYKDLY

[4] = target: T3, 5-hydroxytryptamine receptor 1A (Homo sapiens, UniProt P08908)
T3 sequence (P08908 whole entry): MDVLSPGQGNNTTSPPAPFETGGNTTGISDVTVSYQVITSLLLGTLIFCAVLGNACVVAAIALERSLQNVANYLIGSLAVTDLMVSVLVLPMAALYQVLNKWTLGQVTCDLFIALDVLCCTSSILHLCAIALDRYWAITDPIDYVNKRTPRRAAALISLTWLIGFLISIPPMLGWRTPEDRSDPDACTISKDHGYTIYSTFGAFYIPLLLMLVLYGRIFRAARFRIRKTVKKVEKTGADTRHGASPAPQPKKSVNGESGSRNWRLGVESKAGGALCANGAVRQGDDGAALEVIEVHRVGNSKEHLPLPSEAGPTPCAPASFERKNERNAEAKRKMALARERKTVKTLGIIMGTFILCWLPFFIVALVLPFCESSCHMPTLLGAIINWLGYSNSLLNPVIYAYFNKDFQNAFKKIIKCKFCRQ

[5] = target: T4, B1 bradykinin receptor (Homo sapiens, UniProt P46663)
T4 sequence (P46663 whole entry): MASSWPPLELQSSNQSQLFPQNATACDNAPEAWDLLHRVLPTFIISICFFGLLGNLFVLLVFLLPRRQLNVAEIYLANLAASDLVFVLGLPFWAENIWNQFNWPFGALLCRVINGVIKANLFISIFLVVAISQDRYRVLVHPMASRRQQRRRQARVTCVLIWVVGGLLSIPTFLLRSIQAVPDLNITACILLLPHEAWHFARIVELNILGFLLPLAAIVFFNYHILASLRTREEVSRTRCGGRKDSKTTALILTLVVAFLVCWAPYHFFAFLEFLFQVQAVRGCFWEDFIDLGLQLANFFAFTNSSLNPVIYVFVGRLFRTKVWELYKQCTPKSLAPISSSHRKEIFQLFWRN

[6] = target: T5, Alpha-2A adrenergic receptor (Homo sapiens, UniProt P08913)
T5 sequence (P08913 whole entry): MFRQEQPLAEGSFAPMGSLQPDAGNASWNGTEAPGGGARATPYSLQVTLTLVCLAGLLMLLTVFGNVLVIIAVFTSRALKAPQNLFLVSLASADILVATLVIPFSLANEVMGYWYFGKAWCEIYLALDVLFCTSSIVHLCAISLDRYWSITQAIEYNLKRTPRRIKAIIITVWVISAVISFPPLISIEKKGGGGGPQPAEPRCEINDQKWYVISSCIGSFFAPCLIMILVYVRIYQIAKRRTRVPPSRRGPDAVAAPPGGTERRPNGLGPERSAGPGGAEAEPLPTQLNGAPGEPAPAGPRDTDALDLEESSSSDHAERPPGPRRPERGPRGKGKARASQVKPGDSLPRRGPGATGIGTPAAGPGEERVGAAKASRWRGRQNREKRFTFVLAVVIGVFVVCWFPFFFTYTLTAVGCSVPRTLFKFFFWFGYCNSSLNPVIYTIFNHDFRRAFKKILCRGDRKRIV

[7] = target: Mu-type opioid receptor (Homo sapiens, UniProt P35372); experiment: biochemical; type: functional
Mu-type opioid receptor, sequence (P35372 whole entry): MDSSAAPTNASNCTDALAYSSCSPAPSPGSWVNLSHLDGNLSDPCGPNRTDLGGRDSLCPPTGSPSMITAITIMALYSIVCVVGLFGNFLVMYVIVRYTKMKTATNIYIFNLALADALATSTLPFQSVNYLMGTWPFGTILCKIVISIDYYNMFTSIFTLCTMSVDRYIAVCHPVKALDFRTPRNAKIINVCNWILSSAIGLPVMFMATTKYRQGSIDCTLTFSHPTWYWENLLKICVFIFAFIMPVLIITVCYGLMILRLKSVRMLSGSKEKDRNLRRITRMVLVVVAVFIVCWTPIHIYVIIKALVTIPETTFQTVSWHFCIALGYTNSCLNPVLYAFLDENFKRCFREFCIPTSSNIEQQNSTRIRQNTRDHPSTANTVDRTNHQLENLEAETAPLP

[8] = target: T6, Corticotropin-releasing factor receptor 2 (Homo sapiens, UniProt Q13324)
T6 sequence (Q13324 whole entry): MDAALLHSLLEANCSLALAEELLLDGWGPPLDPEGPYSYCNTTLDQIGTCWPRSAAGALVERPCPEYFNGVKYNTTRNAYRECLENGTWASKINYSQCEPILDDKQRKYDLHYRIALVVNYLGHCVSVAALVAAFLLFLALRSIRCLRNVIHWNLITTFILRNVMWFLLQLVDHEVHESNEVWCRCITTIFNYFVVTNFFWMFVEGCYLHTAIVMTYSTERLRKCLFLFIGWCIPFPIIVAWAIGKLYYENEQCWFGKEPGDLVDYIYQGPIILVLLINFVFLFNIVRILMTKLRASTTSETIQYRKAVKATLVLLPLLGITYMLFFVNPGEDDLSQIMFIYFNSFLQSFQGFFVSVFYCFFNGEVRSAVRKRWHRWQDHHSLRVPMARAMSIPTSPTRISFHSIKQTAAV
Further: assay procedure not described here.

5-hydroxytryptamine receptor 2A, sequence (P28223 whole entry): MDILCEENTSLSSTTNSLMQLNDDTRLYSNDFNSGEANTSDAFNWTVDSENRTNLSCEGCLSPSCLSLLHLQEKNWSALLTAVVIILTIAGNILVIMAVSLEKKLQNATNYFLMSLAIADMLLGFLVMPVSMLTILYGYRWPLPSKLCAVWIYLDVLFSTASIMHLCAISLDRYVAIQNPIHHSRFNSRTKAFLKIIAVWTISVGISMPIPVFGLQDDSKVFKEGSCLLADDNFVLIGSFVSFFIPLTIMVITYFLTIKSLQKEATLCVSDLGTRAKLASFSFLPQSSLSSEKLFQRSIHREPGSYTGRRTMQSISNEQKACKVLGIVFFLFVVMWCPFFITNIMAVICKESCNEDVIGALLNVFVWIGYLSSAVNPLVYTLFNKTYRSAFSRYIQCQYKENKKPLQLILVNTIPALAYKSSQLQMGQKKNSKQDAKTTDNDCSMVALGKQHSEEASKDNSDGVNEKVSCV

`C[C@H](CCC(=O)O)[C@H]1CC[C@H]2[C@@H]3[C@@H](O)C[C@@H]4C[C@H](O)CC[C@]4(C)[C@H]3CC[C@]12C` [URSODIOL] was tested, and the AC50 [1] was > 30 µM, the AC50 [2] was > 30 µM and the AC50 [3] was > 30 µM.
For `COc1cc2nc(N3CCN(C(=O)C4CCCO4)CC3)nc(N)c2cc1OC` (stereo unspecified) [TERAZOSIN], the AC50 [4] was > 10 µM, the AC50 [5] was > 30 µM and the AC50 [6] was 7.27 µM. The AC50 [7] was > 30 µM and the AC50 [8] was > 30 µM.
With `COc1ccccc1OCCNCC(O)COc1cccc2[nH]c3ccccc3c12` (stereo unspecified) [CARVEDILOL] the AC50 [4] was 0.02 µM, the AC50 [5] was > 30 µM and the AC50 [6] was 0.189 µM. For the same molecule, the AC50 [7] was 5.2 µM, the AC50 [3] was > 30 µM and the AC50 [8] was > 30 µM.
`C=CC[C@@H]1/C=C(\C)C[C@H](C)C[C@H](OC)[C@H]2O[C@@](O)(C(=O)C(=O)N3CCCC[C@H]3C(=O)O[C@H](/C(C)=C/[C@@H]3CC[C@@H](O)[C@H](OC)C3)[C@H](C)[C@@H](O)CC1=O)[C@H](C)C[C@@H]2OC` [TACROLIMUS ANHYDROUS] was tested, and the AC50 [4] was > 10 µM, the AC50 [5] was > 30 µM and the AC50 [6] was > 10 µM. The AC50 [7] was > 30 µM, the AC50 [3] was > 30 µM and the AC50 [8] was > 30 µM.
With `Cc1onc(-c2ccccc2)c1-c1ccc(S(N)(=O)=O)cc1` [VALDECOXIB] the AC50 [4] was > 10 µM, the AC50 [5] was > 30 µM and the AC50 [6] was > 10 µM. For the same molecule, the AC50 [3] was > 30 µM and the AC50 [8] was > 30 µM.
With `CN1C[C@H](C(=O)N[C@]2(C)O[C@@]3(O)[C@@H]4CCCN4C(=O)[C@H](Cc4ccccc4)N3C2=O)C=C2c3cccc4[nH]cc(c34)C[C@H]21` [ERGOTAMINE] the AC50 [3] was > 30 µM.
In the case of `CC(C)c1nc(N(C)S(C)(=O)=O)nc(-c2ccc(F)cc2)c1/C=C/[C@@H](O)C[C@@H](O)CC(=O)O` [ROSUVASTATIN], the AC50 [1] is reported as > 30 µM, the AC50 [2] is reported as > 30 µM and the AC50 [7] is reported as > 30 µM. For the same molecule, the AC50 [3] was > 30 µM.
In the case of `COc1cc2nccc(Oc3ccc(NC(=O)C4(C(=O)Nc5ccc(F)cc5)CC4)cc3)c2cc1OC` [CABOZANTINIB], the AC50 [1] is reported as > 30 µM, the AC50 [2] is reported as > 30 µM and the AC50 [3] is reported as > 30 µM.
For `OC[C@H]1O[C@@](CO)(O[C@H]2O[C@H](CO)[C@@H](O)[C@H](O)[C@H]2O)[C@@H](O)[C@@H]1O` [SUCROSE], the AC50 [1] was > 30 µM, the AC50 [2] was > 30 µM and the AC50 [7] was > 30 µM. The AC50 [3] was > 30 µM.
In the case of `C[C@@H](Oc1cc(-c2cnn(C3CCNCC3)c2)cnc1N)c1c(Cl)ccc(F)c1Cl` [CRIZOTINIB], the AC50 [4] is reported as > 10 µM, the AC50 [2] is reported as > 30 µM and the AC50 [3] is reported as > 30 µM.
`CC(S)C(=O)NCC(=O)O` (stereo unspecified) [TIOPRONIN] was tested, and the AC50 [1] was > 30 µM, the AC50 [2] was > 30 µM and the AC50 [3] was > 30 µM.
For `CCN1CCN(Cc2ccc(Nc3ncc(F)c(-c4cc(F)c5nc(C)n(C(C)C)c5c4)n3)nc2)CC1` [ABEMACICLIB], the AC50 [1] was > 30 µM, the AC50 [2] was > 30 µM and the AC50 [3] was > 30 µM.
For `N[C@@H](CC(=O)N1CCn2c(nnc2C(F)(F)F)C1)Cc1cc(F)c(F)cc1F` [SITAGLIPTIN], the AC50 [4] was > 10 µM, the AC50 [5] was > 10 µM and the AC50 [6] was > 10 µM. For the same molecule, the AC50 [2] was > 30 µM and the AC50 [3] was > 30 µM.
In the case of `CO[C@H]1/C=C/O[C@@]2(C)Oc3c(C)c(O)c4c(O)c(c(/C=N/N5CCN(C)CC5)c(O)c4c3C2=O)NC(=O)/C(C)=C\C=C\[C@H](C)[C@H](O)[C@@H](C)[C@@H](O)[C@@H](C)[C@H](OC(C)=O)[C@@H]1C` [RIFAMPIN], the AC50 [4] is reported as > 10 µM, the AC50 [5] is reported as 14.2 µM and the AC50 [6] is reported as > 10 µM. The AC50 [7] was > 30 µM and the AC50 [8] was > 30 µM.
